This passage reports melting point results from patent US9062024B2, “Nitrogen-containing heterocyclic compound and salt thereof, and a fungicide for agricultural and horticultural use” (Nippon Soda Co., Ltd., priority 2009, dated 2015).

By melting point is commonly meant the temperature of the solid-liquid transition.

`CC1(C)CN=C(c2cnc3ccccc3c2)c2ccccc2C1` [Compound B2-3, 4,4-dimethyl-1-(3-quinolinyl)-4,5-dihydro-3H-2-benzazepine] gave a melting point of 115 to 116 °C.
The compound `CC1(C)CCN=C(c2cnc3ccccc3c2)c2ccccc21` [Compound B2-25, 5,5-dimethyl-1-(3-quinolinyl)-4,5-dihydro-3H-2-benzazepine] had a melting point of 121 to 123 °C.
Compound `c1ccc2c(c1)NCCN=C2c1cnc2ccccc2c1` gave a melting point of 201 to 202 °C.
In turn, `CC(=O)N1CCN=C(c2cnc3ccccc3c2)c2ccccc21` returned a melting point of 187 to 189 °C.
